Measurements: patent publication US20230026259A1, “CA2 COMPOSITIONS AND METHODS FOR TUNABLE REGULATION” (Obsidian Therapeutics, Inc., priority 2019, published 2023)

Experiments:
Format in all cases: cell-based
NIH3T3 cells [1] = assay: Destabilization mutant screening of human CA2 linked to GFP, ligand response by FACS (Valdecoxib, Celecoxib, Acetazolamide)
Procedure: To identify destabilizing mutations of human CA2 that are stabilized upon ligand binding to CA2, two rounds of mutant screening were performed, using a lentivirus CA2 mutant library provided by Genscript (China). These methods were used to generate a library of mutant polypeptides using mutagenesis primers and error prone PCR. Lentiviral vectors expressing the template, wild-type human CA2 operably linked to GFP(OT-001986) was also provided by Genscript along with the CA2 mutant library. The library was packaged into lentivirus, transduced into NIH3T3 cells at a multiplicity of infection (MOI) of approximately 0.3 and select stable cell pools were derived by selecting with selection marker puromycin.
To identify cell pools containing destabilizing mutants of CA2 that are stabilizing when CA2 is bound to its corresponding ligand, cells were sorted using FACS. In the initial round, the bottom 15% of population that was GFP negative in the absence of ligand was selected. Cells were expanded and then treated with 10 μM Celecoxib for 24 hours and harvested for cell sorting. The top 11% GFP positive cells which were also responsive to ligand treatment compared to untreated were collected. Celecoxib was removed from the cultures and replaced with DMSO. […] Genomic DNA was isolated and amplified CA2 mutants were reintroduced to the lentiviral vectors where CA2 was operably linked to GFP. The constructs were transduced into NIH3T3 cells with lentivirus vectors for each clone. The cells were treated with 10 μM Valdecoxib or 10 μM Celecoxib for 24 hours and analyzed by FACS. […] In Table 25, the Construct ID (OT-XXXXXX) refers to the construct which includes the referenced CA2 mutant and the Library ID (LibCXXXXXX) refers to the CA2 mutant itself.
The response of NIH3T3 cells to varying doses of Valdecoxib or Celecoxib for 24 hours was measured and analyzed by FACS.
Clones treated with different ligands were compared to examine the behavior of each mutant with the ligands.

NIH3T3 cells [2] = assay: Immunoblotting of cell lysates for GFP after ligand treatment; details: 24 hours
Procedure: The protein expression in the presence of ligand was measured by immunoblotting the cell lysates for GFP.
The protein expression in the presence of ligand was measured by immunoblotting cell lysates for GFP.

NIH3T3 cells [3] = assay: Destabilization mutant screening of human CA2 linked to GFP, ligand response by FACS (Valdecoxib, Celecoxib, Acetazolamide); remark: listed apart in the source
[4] = NIH3T3, Celecoxib 0 μM, 24 hours
[5] = NIH3T3, Celecoxib 0.03 μM, 24 hours
[6] = NIH3T3, Celecoxib 0.1 μM, 24 hours
[7] = NIH3T3, Celecoxib 0.3 μM, 24 hours
[8] = NIH3T3, Celecoxib 1 μM, 24 hours
[9] = NIH3T3, Celecoxib 3 μM, 24 hours
[10] = NIH3T3, Celecoxib 10 μM, 24 hours
[11] = NIH3T3, Celecoxib 30 μM, 24 hours
[12] = NIH3T3, Valdecoxib 0 μM, 24 hours
[13] = NIH3T3, Valdecoxib 0.03 μM, 24 hours
[14] = NIH3T3, Valdecoxib 0.1 μM, 24 hours
[15] = NIH3T3, Valdecoxib 0.3 μM, 24 hours
[16] = NIH3T3, Valdecoxib 1 μM, 24 hours
[17] = NIH3T3, Valdecoxib 3 μM, 24 hours
[18] = NIH3T3, Valdecoxib 10 μM, 24 hours
[19] = NIH3T3, Valdecoxib 30 μM, 24 hours

CA2 (aa 2-260 of WT, L156H) [LibC000208]
Median PE (NIH3T3 cells [1]; NIH3T3, 10 μM Celecoxib): 8690 | SR (stabilization ratio) (NIH3T3 cells [1]; NIH3T3, 10 μM Celecoxib vs DMSO): 9.38 | Median PE (NIH3T3 cells [1]; NIH3T3, 10 μM Valdecoxib): 8006 | SR (stabilization ratio) (NIH3T3 cells [1]; NIH3T3, 10 μM Valdecoxib vs DMSO): 8.65 | Median FITC / Median PE (NIH3T3 cells [1]; NIH3T3, Acetazolamide 0.03 μM, 24 hours): 1190 | Fold change (NIH3T3 cells [1]; NIH3T3, Acetazolamide 0.1 μM vs DMSO): 2.82 | Median FITC / Median PE (NIH3T3 cells [1]; NIH3T3, Acetazolamide 0.1 μM, 24 hours): 2137 | Fold change (NIH3T3 cells [1]; NIH3T3, Acetazolamide 0.3 μM vs DMSO): 6.23 | Median FITC / Median PE (NIH3T3 cells [1]; NIH3T3, Acetazolamide 0.3 μM, 24 hours): 4715 | Fold change (NIH3T3 cells [1]; NIH3T3, Acetazolamide 1 μM vs DMSO): 13.17 | Median FITC / Median PE (NIH3T3 cells [1]; NIH3T3, Acetazolamide 1 μM, 24 hours): 9970 | Fold change (NIH3T3 cells [1]; NIH3T3, Acetazolamide 3 μM vs DMSO): 18.36 | Median FITC / Median PE (NIH3T3 cells [1]; NIH3T3, Acetazolamide 3 μM, 24 hours): 13900 | MFI, comparative analysis (NIH3T3 cells [1]; NIH3T3, Acetazolamide 10 μM): 16900 | Fold change (NIH3T3 cells [1]; NIH3T3, Acetazolamide 10 μM vs DMSO): 22.32 | Median FITC / Median PE (NIH3T3 cells [1]; NIH3T3, Acetazolamide 10 μM, 24 hours): 16900 | MFI, comparative analysis (NIH3T3 cells [1]; NIH3T3, Acetazolamide 30 μM): 17800 | Fold change (NIH3T3 cells [1]; NIH3T3, Acetazolamide 30 μM vs DMSO): 23.51 | Median FITC / Median PE (NIH3T3 cells [1]; NIH3T3, Acetazolamide 30 μM, 24 hours): 17800 | Med (median fluorescence intensity) (NIH3T3 cells [1]; [4]): 906 | SR (stabilization ratio) (NIH3T3 cells [1]; [4]): 1 | Med (median fluorescence intensity) (NIH3T3 cells [1]; [5]): 1017 | SR (stabilization ratio) (NIH3T3 cells [1]; [5]): 1.12 | Med (median fluorescence intensity) (NIH3T3 cells [1]; [6]): 1194 | SR (stabilization ratio) (NIH3T3 cells [1]; [6]): 1.32 | Med (median fluorescence intensity) (NIH3T3 cells [1]; [7]): 1457 | SR (stabilization ratio) (NIH3T3 cells [1]; [7]): 1.61 | Med (median fluorescence intensity) (NIH3T3 cells [1]; [8]): 2221 | SR (stabilization ratio) (NIH3T3 cells [1]; [8]): 2.45 | Med (median fluorescence intensity) (NIH3T3 cells [1]; [9]): 5404 | SR (stabilization ratio) (NIH3T3 cells [1]; [9]): 5.96 | Med (median fluorescence intensity) (NIH3T3 cells [1]; [10]): 9766 | SR (stabilization ratio) (NIH3T3 cells [1]; [10]): 10.78 | Med (median fluorescence intensity) (NIH3T3 cells [1]; [11]): 13200 | SR (stabilization ratio) (NIH3T3 cells [1]; [11]): 14.57 | MFI, comparative analysis, normalized to parental day 1 (NIH3T3 cells [1]; NIH3T3, Celecoxib μM (concentration not given)): 8707.036 | MFI, comparative analysis (NIH3T3 cells [1]; NIH3T3, DMSO): 757 | Median PE (NIH3T3 cells [1]; NIH3T3, DMSO): 926 | SR (stabilization ratio) (NIH3T3 cells [1]; NIH3T3, DMSO (reference)): 1 | Median FITC / Median PE (NIH3T3 cells [1]; NIH3T3, DMSO, 24 hours (Acetazolamide experiment)): 757 | Med (median fluorescence intensity) (NIH3T3 cells [1]; [12]): 906 | SR (stabilization ratio) (NIH3T3 cells [1]; [12]): 1 | Med (median fluorescence intensity) (NIH3T3 cells [1]; [13]): 1049 | SR (stabilization ratio) (NIH3T3 cells [1]; [13]): 1.16 | Med (median fluorescence intensity) (NIH3T3 cells [1]; [14]): 1131 | SR (stabilization ratio) (NIH3T3 cells [1]; [14]): 1.25 | Med (median fluorescence intensity) (NIH3T3 cells [1]; [15]): 1219 | SR (stabilization ratio) (NIH3T3 cells [1]; [15]): 1.35 | Med (median fluorescence intensity) (NIH3T3 cells [1]; [16]): 1747 | SR (stabilization ratio) (NIH3T3 cells [1]; [16]): 1.93 | Med (median fluorescence intensity) (NIH3T3 cells [1]; [17]): 3603 | SR (stabilization ratio) (NIH3T3 cells [1]; [17]): 3.98 | Med (median fluorescence intensity) (NIH3T3 cells [1]; [18]): 8284 | SR (stabilization ratio) (NIH3T3 cells [1]; [18]): 9.14 | Med (median fluorescence intensity) (NIH3T3 cells [1]; [19]): 11300 | SR (stabilization ratio) (NIH3T3 cells [1]; [19]): 12.48 | MFI, comparative analysis, normalized to parental day 1 (NIH3T3 cells [1]; NIH3T3, Valdecoxib μM (concentration not given)): 7385.735 | stabilization with varying doses of Valdecoxib or Celecoxib (NIH3T3 cells [1]; NIH3T3 cells, 24 hours, FACS): dose dependent stabilization | GFP protein expression by immunoblot, Acetazolamide (NIH3T3 cells [2]; NIH3T3 cells, 0.3, 1, 3, 10 or 30 μM Acetazolamide): stabilization of GFP with increasing ligand doses | GFP protein expression by immunoblot, Celecoxib or Valdecoxib (NIH3T3 cells [2]; NIH3T3 cells, 1, 3, 10 or 30 μM Celecoxib or Valdecoxib): stabilization of GFP with increasing ligand doses | Fold change (NIH3T3 cells [3]; NIH3T3, Acetazolamide 0.03 μM vs DMSO): 1.57 | Fold change (NIH3T3 cells [3]; NIH3T3, DMSO (reference), Acetazolamide experiment): 1 | GFP expression with varying doses of Acetazolamide (NIH3T3 cells [3]; NIH3T3 cells, 24 hours, FACS): dose response stabilization of GFP expression
